The text below walks through data of the supplement of paper PMC11061612.

Holding throughout (test): combination Emax (second highest fraction inhibited in the dose matrix, 72 h); higher = more inhibition; extreme values may be limits of the assay
The test system of assay [1] is HCT-116 (Colorectal Carcinoma). In outline:
(§1)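 Cell lines in DMEM/F12 or RPMI with 10% FBS were plated in 1536-well plates, held 24 hours at 37°C, 5% CO2, then given two-drug dose matrices for 72 hours (DMSO typically 0.2%). Viability was read by CellTiter-Glo 2.0 luminescence and scaled as inhibition from 0 (vehicle wells) to 1 (blank wells). Combination Emax is the second-highest inhibition in the matrix; Bliss excess is observed combination effect minus expected EA + EB − EA·EB, EA and EB being single-agent effects.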

In another assay the test system is H4 (Low Grade Glioma). In outline:
as §1

For assay [2], the system named is D-283MED (Other Solid Carcinomas). In outline: as §1
The subject of assay [3] is HCC1143 (Breast Carcinoma). In outline: as §1
Assay [4] has as its system PA-TU-8902 (Pancreatic Carcinoma). In outline:
as §1

For assay [5], the system named is CAL-39 (Other Solid Carcinomas). In outline:
as §1

Assay [6] relates to SW948 (Colorectal Carcinoma). In outline: as §1
Assay [7] relates to SNG-M (Endometrial Carcinoma). In outline:
as §1

Assay [8] relates to U-118-MG (Low Grade Glioma). The method, boiled down:
as §1

Assay [9] has as its system SNU-61 (Colorectal Carcinoma). In outline:
as §1

In assay [10] the test system is ETK-1 (Biliary Tract Carcinoma). The method, boiled down: as §1
Assay [11] has as its system NCI-H1688 (Small Cell Lung Carcinoma). In outline:
as §1

The test system of assay [12] is TYK-nu (Ovarian Carcinoma). The method, boiled down: as §1
In assay [13] the test system is HOP-92 (Non-Small Cell Lung Carcinoma). In outline: as §1
Assay [14] relates to HLE (Hepatocellular Carcinoma). The method, boiled down:
as §1

A further assay relates to MCF7 (Breast Carcinoma). The method, boiled down: as §1
A further assay deals with Saos-2 (Osteosarcoma). In outline:
as §1

The test system of assay [15] is YT (Other Blood Carcinomas). In outline:
as §1

For assay [16], the system named is KG-1 (Acute Myeloid Leukemia). In outline: as §1
The subject of another assay is D-392MG (Glioblastoma). In outline: as §1

On to `CN(CCO)CC[C@H](CSc1ccccc1)Nc1ccc(S(=O)(=O)NC(=O)c2ccc(N3CCC([C@@H](O)c4ccccc4-c4ccc(Cl)cc4)CC3)cc2)cc1S(=O)(=O)C(F)(F)F` [AZD4320] + C1CN(CCC1(C(=O)N[C@@H](CCO)C2=CC=C(C=C2)Cl)N)C3=NC=NC4=C3C=CN4 [Capivasertib] (first compound max 1 µM, 7x7, partner max 3 µM), for which the “combination Emax” value in [1] stood at 0.146; in the assay with H4 (Low Grade Glioma) it was 0.404; in assay [2], 0.763; in [3], 0.297; in assay [4], 0.156; in [5], 0.286. The “combination Emax” value in assay [6] is 0.624; in assay [7], 0.528; in assay [8], 0.497; in [9] it was 0.053; in assay [10], 0.175; in assay [11] it was 0.575. The “combination Emax” value in assay [12] is 0.244; in [13] it was 0.891; in [14], 0.274; with MCF7 (Breast Carcinoma) it was 0.279; with Saos-2 (Osteosarcoma), 0.399; in assay [15], 0.212. The “combination Emax” value is 0.929 in assay [16] and 0.189 with D-392MG (Glioblastoma).

For the compound `CN(CCO)CC[C@H](CSc1ccccc1)Nc1ccc(S(=O)(=O)NC(=O)c2ccc(N3CCC([C@@H](O)c4ccccc4-c4ccc(Cl)cc4)CC3)cc2)cc1S(=O)(=O)C(F)(F)F` [AZD4320] + C=CCn1c(=O)c2cnc(Nc3ccc(N4CCN(C)CC4)cc3)nc2n1-c1cccc(C(C)(C)O)n1 [AZD1775] (first compound max 1 µM, partner max 1 µM), the “combination Emax” value in assay [1] amounted to 0.572; in the assay with H4 (Low Grade Glioma), 1; in assay [2], 0.985; in assay [3], 0.588; in assay [4] it was 0.296; in assay [5] it was 0.345. For the same compound, the “combination Emax” value in assay [6] stood at 0.745; in assay [7], 0.903; in assay [8], 0.376; in assay [9], 0.349; in [10], 0.618; in assay [11] it was 0.87. The “combination Emax” value was found to be 0.65 in [12]; 0.974 in assay [13]; 0.871 in assay [14]; 0.51 in the assay on MCF7 (Breast Carcinoma); 0.707 in the assay with Saos-2 (Osteosarcoma); 0.88 in assay [15]. In addition, the “combination Emax” value in [16] amounted to 1; in the assay on D-392MG (Glioblastoma), 0.763.

`CN(CCO)CC[C@H](CSc1ccccc1)Nc1ccc(S(=O)(=O)NC(=O)c2ccc(N3CCC([C@@H](O)c4ccccc4-c4ccc(Cl)cc4)CC3)cc2)cc1S(=O)(=O)C(F)(F)F` [AZD4320] + CCN(CCO)CCCOc1ccc2c(Nc3cc(CC(=O)Nc4cccc(F)c4)[nH]n3)ncnc2c1 [AZD2811] (first compound max 1 µM, 7x7, partner max 1 µM): the “combination Emax” value in assay [1] amounted to 0.748; in the assay with H4 (Low Grade Glioma), 0.543; in assay [2], 0.973; in assay [3], 0.304; in assay [4] it was 0.189; in assay [5] it was 0.397. The “combination Emax” value was 0.545 in [6]; 0.775 in assay [7]; 0.487 in assay [8]; 0.126 in assay [9]; 0.26 in assay [10]; 0.723 in assay [11]. Besides, the “combination Emax” value in [12] was 0.27; in assay [13] it was 0.968; in assay [14] it was 0.721; with MCF7 (Breast Carcinoma), 0.248; in the assay with Saos-2 (Osteosarcoma) it was 0.77; in assay [15] it was 0.196. Besides, the figures for the “combination Emax” value (in assay [16]; in the assay with D-392MG (Glioblastoma)) were 0.966 and 0.729, respectively.

Turning to `CN(CCO)CC[C@H](CSc1ccccc1)Nc1ccc(S(=O)(=O)NC(=O)c2ccc(N3CCC([C@@H](O)c4ccccc4-c4ccc(Cl)cc4)CC3)cc2)cc1S(=O)(=O)C(F)(F)F` [AZD4320] + CN(C)CCCOc1ccc(-c2ccc3ncc4c(c3c2)n(C2CCOCC2)c(=O)n4C)cn1 [AZD0156] (first compound max 1 µM, 7x7, partner max 1 µM), the “combination Emax” value in assay [1] was determined as 0.167; in the assay on H4 (Low Grade Glioma) it was 0.247; in [2] it was 0.818; in [3], 0.252; in assay [4], 0.0883; in assay [5], 0.181. Moreover, the “combination Emax” value in assay [6] came to 0.248; in assay [7], 0.328; in assay [8], 0.388; in assay [9], 0.11; in assay [10], 0.112; in assay [11], 0.487. For the same compound, the “combination Emax” value in [12] worked out at 0.165; in [13], 0.899; in [14] it was 0.399; in the assay on MCF7 (Breast Carcinoma), 0.234; in the assay with Saos-2 (Osteosarcoma) it was 0.193; in assay [15], 0.623. For the same compound, the “combination Emax” value is 0.952 in assay [16] and 0.218 with D-392MG (Glioblastoma).

Take `CN(CCO)CC[C@H](CSc1ccccc1)Nc1ccc(S(=O)(=O)NC(=O)c2ccc(N3CCC([C@@H](O)c4ccccc4-c4ccc(Cl)cc4)CC3)cc2)cc1S(=O)(=O)C(F)(F)F` [AZD4320] + C[C@@H]1COCCN1C2=NC(=NC(=C2)C3(CC3)[S@](=N)(=O)C)C4=C5C=CNC5=NC=C4 [AZD6738] (first compound max 1 µM, 7x7, partner max 10 µM): the “combination Emax” value came out at 0.778 in assay [1]; 0.9 in the assay with H4 (Low Grade Glioma); 0.992 in assay [2]; 0.842 in assay [3]; 0.341 in assay [4]; 0.619 in assay [5]. The “combination Emax” value in assay [6] was 0.563; in assay [7], 0.973; in assay [8], 0.878; in [9] it was 0.365; in assay [10] it was 0.675; in assay [11], 0.728. Besides, the “combination Emax” value in assay [12] came to 0.803; in assay [13], 0.976; in [14], 0.871; in the assay with MCF7 (Breast Carcinoma), 0.656; in the assay on Saos-2 (Osteosarcoma), 0.673; in assay [15], 0.811. Moreover, the “combination Emax” value is 1 in [16] and 0.792 with D-392MG (Glioblastoma).

As for `CN(CCO)CC[C@H](CSc1ccccc1)Nc1ccc(S(=O)(=O)NC(=O)c2ccc(N3CCC([C@@H](O)c4ccccc4-c4ccc(Cl)cc4)CC3)cc2)cc1S(=O)(=O)C(F)(F)F` [AZD4320] + C[C@@H](Nc1cc(F)cc(F)c1)c1cc(C(=O)N(C)C)cc2c(=O)cc(N3CCOCC3)oc12 [AZD8186] (first compound max 1 µM, 7x7, partner max 3 µM), the “combination Emax” value in [1] is 0.686; in the assay on H4 (Low Grade Glioma) it was 0.583; in assay [2] it was 0.928; in assay [3] it was 0.418; in assay [4] it was 0.387; in assay [5], 0.41. Also, the “combination Emax” value in [6] stood at 0.485; in [7], 0.674; in [8], 0.812; in assay [9], 0.162; in assay [10], 0.324; in assay [11], 0.484. In addition, the “combination Emax” value in assay [12] turned out to be 0.645; in [13], 0.967; in assay [14], 0.48; in the assay with MCF7 (Breast Carcinoma), 0.544; in the assay with Saos-2 (Osteosarcoma) it was 0.478; in assay [15], 0.676. Further, the “combination Emax” value in assay [16] is 0.953; with D-392MG (Glioblastoma), 0.649.
